{"source": "patent US9321993B2", "about": "“Tissue culture method for producing cartilage using trimethylamine N-oxide and chondroitinase” (The Trustees of Columbia University in the City of New York, priority 2010, dated 2016)", "key": {"Articular chondrocytes [1]": {"tested_on": "Articular chondrocytes", "test": "Equilibrium Young's and dynamic modulus under 10% unconfined compression, Example 2", "assay_type": "cell-based, bovine", "conditions": "for mechanical properties (Young's modulus) versus control group: day 28", "method": "(§1) Articular chondrocytes were harvested from juvenile bovine wrist joints (2-4 weeks old), and digested for 8 hrs at 37° C. with Collagenase V (Sigma) to isolate chondrocytes. The cells were expanded for one passage in DMEM media containing 10% FBS, 1% PSAM, 5 ng/ml bFGF, 10 ng/ml PDGF, and 1 ng/ml of TGF-b1 (plating density=180 cells/cm^2) (see Ng et al. 2010 Tissue Eng Part A 16(3), 1041-1051). The passaged cells were seeded in 2% w/v agarose hydrogel scaffold (Type VII, Sigma Inc.) at a concentration of 30M cells/ml. Samples were cored (diameter=4 mm, thickness=2.34 mm) and cultured in chondrogenically-defined media (CM: DMEM with 0.1 uM dexamethasone, 40 mg/mL L-proline, 50 mg/mL ascorbate 2-phosphate, […] sodium pyruvate, 1×ITS+premix, 100 U/ml penicillin, and […] streptomycin and amphotericin B) supplemented with TGF-β3 for the first 14 days. Constructs grown without TMAO served as control.\n(§2) Six culture medias were evaluated, with serum free media containing ascorbic acid and 10 ng/ml of TGF-b3 for the first 14 days used as the control (see Lima et al. 2007 Osteoarthritis Cartilage 15(9), 1025-1033). TMAO was added to the media at concentrations of 55 mM and 180 mM, and urea was added to the media at concentrations of 90 mM and 360 mM. The final group included a combination (combo) of TMAO (180 mM) and urea (360 mM).\n(§3) The equilibrium Young's (Eγ) and dynamic modulus was determined under 10% unconfined compression. Biochemical analysis was performed to determine the GAG, hydroxyproline (OHP) and DNA content. GAG and OHP values were normalized to the DNA content and wet weight. Tested samples were fixed for histology and stained with Picosirius Red and Safranin-O to determine the distribution of collagen and GAG, respectively. Mechanical, biochemical and histological analysis was performed every two weeks (n=4/5). A two-way ANOVA (factors: culture day and treatment) was performed to evaluate the treatment for mechanical and biochemical analysis with a Bonferroni post hoc analysis."}, "Articular chondrocytes [2]": {"tested_on": "Articular chondrocytes", "test": "Biochemical analysis (GAG, OHP) and histology of constructs, Example 2", "assay_type": "cell-based, bovine", "method": "as §1, §2, §3"}, "[3]": {"tested_on": "Immature bovine chondrocytes", "test": "Stiffness (Young's modulus) of engineered constructs cultured with supplemented media, Example 1", "assay_type": "cell-based", "conditions": "TMAO 180 or 55 mM from day 0; day 28 of culture", "method": "Immature bovine chondrocytes were enzymatically isolated and encapsulated in 2% w/v type VII agarose (Sigma). Engineered cylindrical constructs were cultured in serum-free chondrogenic media (ITS+, ascorbic acid, dexamethasone, pen/strep) and transforming growth factor beta-3 (TGFβ3) for the first 14 days.\nThe culture media of some constructs were supplemented from day 0 with TMAO (180 or 55 mM), urea (360 or 90 mM) or TMAO+urea (combo: 360 mM urea and 180 mM TMAO which is the physiological ratio found in shark tissue)."}, "Articular chondrocytes [4]": {"tested_on": "Articular chondrocytes", "test": "Young's and dynamic modulus after transient application of TMAO, Example 3", "assay_type": "cell-based, bovine", "conditions": "50 mM TMAO for the first 14 days (transient); day 42", "method": "as §1\n(§4) The equilibrium Young's (Eγ) and dynamic modulus was determined under 10% unconfined compression. Biochemical analysis was performed to determine the GAG, hydroxyproline (OHP) and DNA content. GAG and OHP values were normalized to the DNA content and wet weight. Tested samples were fixed for histology and stained with Picosirius Red and Safranin-O to determine the distribution of collagen and GAG, respectively. […]"}, "Articular chondrocytes [5]": {"tested_on": "Articular chondrocytes", "test": "GAG and OHP content after transient application of TMAO, Example 3", "assay_type": "cell-based, bovine", "method": "as §1, §3\nCulture media was supplemented with 0 mM, 5 mM, 50 mM, 100 mM or 200 mM of TMAO for the first 14 days of culture (transient application).\nMethods are according to Example 2 unless otherwise indicated. Statistical analysis included a two-way ANOVA (factors: time & concentration) with a Bonferonni post-hoc test."}, "Articular chondrocytes [6]": {"tested_on": "Articular chondrocytes", "test": "Equilibrium modulus of constructs digested with chondroitinase ABC, then cultured with CM or TMAO, Example 4", "assay_type": "cell-based, bovine", "method": "as §1, §3\n(§5) Methods are according to Example 2 unless otherwise indicated.\nMature constructs were enzymatically digested for 48 hours at day 14 with 0.15 U/mL of chondroitinase ABC (chABC), which degrades proteoglycans, then cultured with CM or CM supplemented with 5 mM of TMAO. […] Following the digestion, constructs were cultured in either CM or CM supplemented with 5 mM TMAO. A Student's t-test was performed to compare properties of the constructs cultured in CM or CM supplemented with TMAO. Significance was set at ? =0.05."}, "Articular chondrocytes [7]": {"tested_on": "Articular chondrocytes", "test": "Biochemical content of constructs digested with chondroitinase ABC, then cultured with CM or TMAO, Example 4", "assay_type": "cell-based, bovine", "method": "as §1, §4"}, "[8]": {"tested_on": "nucleus pulposus (spine tissue) cells", "test": "GAG and OHP (collagen) content of nucleus pulposus micropellets, Example 5", "assay_type": "cell-based", "method": "as §3, §5\nMicropellets (scaffold-free constructs comprised of aggregated cells only) consisting of nucleus pulposus (spine tissue) cells were cultured for […]. The media was supplement with either 5 mM or 50 mM TMAO. Micropellets cultured in CM were used as the control. Micropellets were cultured for 6 weeks and analyzed for biochemistry (i.e. GAG, DNA and OHP contents)."}, "[9]": {"conditions": "high concentration of urea (360 mM)"}, "[10]": {"conditions": "lower concentrations of urea (90 mM)"}, "[11]": {"conditions": "5 mM TMAO after chABC digestion, by day 28, persisted to day 42"}}}
{"smiles": "NC(N)=O", "note": "[urea, reference compound]", "values": [{"measurement": "mechanical properties versus day 0", "setting": "Articular chondrocytes [1]; [9]", "result": "did not increase from day 0"}, {"measurement": "effect on mechanical properties", "setting": "Articular chondrocytes [1]; [10]", "result": "did not have adverse effects"}, {"measurement": "biochemical properties versus day 0", "setting": "Articular chondrocytes [2]; [9]", "result": "did not increase from day 0"}, {"measurement": "effect on biochemical properties", "setting": "Articular chondrocytes [2]; [10]", "result": "did not have adverse effects"}]}
{"smiles": "C[N+](C)(C)[O-]", "note": "[TMAO, Trimethylamine N-oxide]", "values": [{"measurement": "Young's modulus (stiffness) versus control group", "setting": "[3]", "result": "two-fold"}, {"measurement": "mechanical properties (Young's modulus) versus control group", "setting": "Articular chondrocytes [1]; 55 mM TMAO", "result": 2, "unit": "×"}, {"measurement": "mechanical properties (Young's modulus) versus control group", "setting": "Articular chondrocytes [1]; 180 mM TMAO", "result": 2, "unit": "×"}, {"measurement": "normalized GAG content versus control", "setting": "Articular chondrocytes [2]; 55 mM TMAO, day 28", "result": "significantly greater than control"}, {"measurement": "normalized collagen content versus control", "setting": "Articular chondrocytes [2]; 55 mM TMAO, day 28", "result": "significantly greater than control"}, {"measurement": "histology: distribution of GAG and collagen throughout the thickness of the construct", "setting": "Articular chondrocytes [2]; 55 mM TMAO, day 28, Picosirius Red and Safranin-O", "result": "even distribution"}, {"measurement": "Young's modulus versus control group", "setting": "Articular chondrocytes [4]", "result": "significantly greater than the control group"}, {"measurement": "dynamic modulus versus control group", "setting": "Articular chondrocytes [4]", "result": "significantly greater than the control group"}, {"measurement": "OHP content greater than the control values", "setting": "Articular chondrocytes [5]; 100 mM TMAO, day 28", "result": "approximately 50%"}, {"measurement": "GAG content (normalized to wet weight) greater than control values", "setting": "Articular chondrocytes [5]; TMAO 5 mM, 50 mM and 100 mM, day 42", "result": "up to 17%"}, {"measurement": "OHP content (normalized to the wet weight) versus control", "setting": "Articular chondrocytes [5]; TMAO groups, day 28, reaching significance for 50 mM and 100 mM", "result": "greater than the control"}, {"measurement": "mechanical properties relative to CM alone", "setting": "Articular chondrocytes [6]; [11]", "result": "significantly greater"}, {"measurement": "recovery of the mechanical properties", "setting": "Articular chondrocytes [6]; TMAO supplement following the chABC digestion, compared to the control", "result": "quicker recovery"}, {"measurement": "EY (equilibrium Young's modulus)", "setting": "Articular chondrocytes [6]; day 42, CM with 5 mM TMAO after chABC digestion, CM group 115.6±38.1 kPa", "result": "235.6±75.8", "unit": "kPa"}, {"measurement": "biochemical properties relative to CM alone", "setting": "Articular chondrocytes [7]; [11]", "result": "significantly greater"}, {"measurement": "collagen content compared to the control", "setting": "Articular chondrocytes [7]; TMAO supplement following the chABC digestion", "result": "increases the collagen content"}, {"measurement": "GAG production of the micropellets", "setting": "[8]; 5 mM or 50 mM TMAO, normalized by DNA content at day 42 (FIG. 9A)", "result": "graded effect"}, {"measurement": "increase in collagen production", "setting": "[8]; CM supplemented with TMAO (5 mM or 50 mM), normalized by DNA content at day 42 (FIG. 9B)", "result": 50, "unit": "%"}]}
